In general, MIC refers to the least concentration at which growth counts as inhibited. One may read the solubility as how much of the substance goes into solution per volume.

This is an account of results in US4542169A, “Biomedical devices containing isothiazolones to control bacteria growth” (Rohm and Haas Company, priority 1983, dated 1985).

Values after ≈ are worked out from the molar mass of the structure shown. Where a name gives a salt, the structure may show the parent alone.

In data set [1] the test system is Candida albicans (yeast). Kind of data set: Minimum inhibitory concentration, fungistatic activity. As to conditions: Table III: Active Ingredient MIC. Type of data set: cell-based.
Data set [2] concerns Escherichia coli. The data set can be described thus: Minimum inhibitory concentration, bacteriostatic activity. The class given is cell-based. As to conditions: Table III: Active Ingredient MIC.
Data set [3] relates to Aspergillus niger. The data set can be described thus: Minimum inhibitory concentration, fungistatic activity. The class given is cell-based. The conditions noted are these: Table III: Active Ingredient MIC.
Data set [4] deals with Staphylococcus aureus. The data set can be described thus: Minimum inhibitory concentration, bacteriostatic activity. Type of data set: cell-based. The conditions noted are these: Table III: Active Ingredient MIC.
Data set [5] concerns Aureobasidium pullulans. The data set can be described thus: Minimum inhibitory concentration, fungistatic activity. The class given is cell-based. As to conditions: Table III: Active Ingredient MIC.
Data set [6] concerns Pseudomonas aeruginosa. Kind of data set: Minimum inhibitory concentration, bacteriostatic activity. The class given is cell-based. As to conditions: Table III: Active Ingredient MIC.
The test system of data set [7] is Staphlococcus aureus (S.a). The data set can be described thus: Zone of inhibition, polyvinyl chloride film discs on inoculated agar. Type of data set: cell-based. The conditions noted are these: for Zone of Inhibition: PVC film; for Zones: PVC. On the procedure:
(§1) In a two-liter, three-necked, round-bottom, flask equipped with a mechanical stirrer was placed 100 g of polyvinyl chloride, 590 g of reagent grade tetrahydrofuran, and 40.0 g of dioctylphthalate. This was stirred with gentle heating (35°-40° C.) for two hours to completely dissolve the polyvinyl chloride. Then, a barium/calcium salt of a fatty acid (3.5 g), a phosphite chelating agent (1.5 g), stearic Acid (0.25 g) and epoxidized soy bean oil (7.5 g), were mixed with 21 g of tetrahydrofuran and added to the polyvinyl chloride solution. After stirring at room temperature for 30 minutes, the solution was ready for use.
(§2) Films containing the isothiazolones were cast by first preparing a 0.5 weight percent polyvinyl chloride solution by adding the isothiazolone to the polyvinyl chloride solution. Then, portions of the 0.5% solution were diluted to 0.1 and 0.05%. The films were drawn down on 12"×12" glass plates using a 50 mil-3" wide coating bar and the films were allowed to air dry for 48 hours.
(§3) The films were cut into 1.25 cm discs and placed in agar plates inoculated with Staphlococcus aureus (S.a) or Echerichia coli (E.c.).

Data set [8] deals with Echerichia coli (E.c.). Described as above. The class given is cell-based. The conditions noted are these: for Zone of Inhibition: PVC film; for Zones: PVC. On the procedure: as §1, §2, §3
Data set [9] relates to Aerobasidium pullulans (A.p). The data set can be described thus: Zone of inhibition, polyvinyl chloride film. Type of data set: cell-based. The conditions noted are these: PVC film.
Data set [10] has as its system Aspergillis niger (A.n.). The data set can be described thus: Zone of inhibition, polyvinyl chloride film. Type of data set: cell-based. As to conditions: PVC film.
The subject of data set [11] is Aspergillis niger (A.n.). The data set can be described thus: Growth of fungus on polyvinyl chloride film. Type of data set: cell-based. Further details: key: 0: zero (no growth); 5: five (heavy growth). As to conditions: PVC film. On the procedure:
as §1, §2
(§4) In addition to zones of inhibition, the films were observed by growth of fungus on the film and rated from zero (no growth) to five (heavy growth).

Data set [12] concerns Aerobasidium pullulans (A.p). The data set can be described thus: Growth of fungus on polyvinyl chloride film. The conditions noted are these: PVC film. Details: key: 0: zero (no growth); 5: five (heavy growth). Type of data set: cell-based. As to the method: as §1, §2, §4
A short description of data set [13]: Solubility in H2O. Type of data set: physicochemical. As to conditions: water.
Data set [14] has as its system S.a. Kind of data set: Zone of inhibition, silicone rubber film discs on inoculated agar. Type of data set: cell-based, Staphlococcus aureus. The conditions noted are these: Silicone, S.a.
From the text: as §3
(§5) The films were cut into discs and tested as in example one against S.a. and E.c.

For data set [15], the system named is Pseudomonas aeruginosa (P.a.). Kind of data set: Zone of inhibition, polyvinyl chloride (vinyl) film discs. The class given is cell-based. The conditions noted are these: PVC. As to the method:
as §1, §3
Discs were tested against Pseudomonas aeruginosa (P.a.). The 1.0% films gave a slight zone of inhibition while the 5.0% film gave a 1 mm zone of inhibition.

Data set [16] has as its system P.a. The data set can be described thus: Zone of inhibition, silicone film. The class given is cell-based, Pseudomonas aeruginosa.
The test system of data set [17] is E.c. The data set can be described thus: Zone of inhibition, silicone rubber film discs on inoculated agar. As to conditions: Silicone. The class given is cell-based, Echerichia coli.
From the text: as §3, §5

Take `O=c1cc(Cl)sn1Cc1ccc(Cl)cc1` [5-chloro-2-(p-chlorobenzyl)-4-isothiazolin-3-one]: the MIC was found to be 4 µg/mL (≈ 15.4 µM) in data set [1]; 8 µg/mL (≈ 30.8 µM) in data set [2]; 4 µg/mL (≈ 15.4 µM) in [3]; 4 µg/mL (≈ 15.4 µM) in [4]; 8 µg/mL (≈ 30.8 µM) in data set [5]; 8 µg/mL (≈ 30.8 µM) in data set [6].

In the case of `O=c1c(Cl)c(Cl)sn1Cc1ccccc1` [Compound 2, 4,5-Dichloro-N--benzyl-isothiazolin-3-one], the “Zone of Inhibition” value stood at 2.0 mm in data set [7] (0.05%); 3.8 mm in data set [7] (0.1%); 0 mm in data set [8] (0.05%); 0 mm in data set [8] (0.1%); 3.3 mm in [8] (0.5%); 0 mm in [9] (0.05%). Also, the “Zone of Inhibition” value in [9] (0.1%) was 0 mm; in data set [9] (0.5%), 4.8 mm; in data set [10] (0.05%) it was 0 mm; in data set [10] (0.1%), 0 mm; in data set [10] (0.5%), 4.3 mm. Further, the “Growth on Film” value in [11] (0.05%) worked out at 4; in [11] (0.1%), 0; in data set [11] (0.5%) it was 0; in data set [12] (0.05%) it was 4; in data set [12] (0.1%), 0; in data set [12] (0.5%) it was 0. The same compound came in with a solubility in [13] of 195 µg/mL (≈ 750 µM).

As for `O=c1c(Cl)c(Cl)sn1CCc1ccccc1` [Compound 3, 4,5-Dichloro-N-- 2-phenethyl-isothiazolin-3-one], the “Zone of Inhibition” value is listed as 1.8 mm in [7] (0.05%); 4.3 mm in [7] (0.1%); 10.8 mm in [7] (0.5%); 0 mm in [8] (0.05%); 0 mm in data set [8] (0.1%); 1.8 mm in [8] (0.5%). Moreover, the “Zone of Inhibition” value is 0 mm in [9] (0.05%); 0 mm in data set [9] (0.1%); 3.8 mm in data set [9] (0.5%); 0 mm in data set [10] (0.05%); 0 mm in data set [10] (0.1%); 4.8 mm in [10] (0.5%). Further, the “Growth on Film” value came to 1 in [11] (0.05%); 0 in data set [11] (0.1%); 0 in data set [11] (0.5%); 2 in data set [12] (0.05%); 0 in [12] (0.1%); 0 in data set [12] (0.5%). In data set [13], this compound yielded a solubility of 96 µg/mL (≈ 350 µM).

`CCCCCCn1sc(Cl)c(Cl)c1=O` [Compound 4, 4,5-Dichloro-N--n-hexyl-isothiazolin-3-one]: the “Zone of Inhibition” value is 1.3 mm in [7] (0.05%); 2.3 mm in data set [7] (0.1%); 9.3 mm in [7] (0.5%); 0 mm in [8] (0.05%); 0 mm in data set [8] (0.1%); 0.8 mm in data set [8] (0.5%). In addition, the “Zone of Inhibition” value in data set [9] (0.05%) is listed as 0 mm; in data set [9] (0.1%), 0 mm; in data set [9] (0.5%) it was 2.8 mm; in [10] (0.05%), 0 mm; in data set [10] (0.1%), 0 mm; in [10] (0.5%), 3.8 mm. The “Growth on Film” value in data set [11] (0.05%) was determined as 0; in [11] (0.1%) it was 0; in [11] (0.5%) it was 0; in data set [12] (0.05%), 3; in data set [12] (0.1%) it was 0; in data set [12] (0.5%), 0. In data set [13], this compound registered a solubility of 143 µg/mL (≈ 563 µM).

As to `CCCCCCCn1sc(Cl)c(Cl)c1=O` [Compound 6, 4,5-Dichloro-N--n-heptyl-isothiazolin-3-one], the “Zone of Inhibition” value in [7] (0.05%) is given as 0 mm; in data set [7] (0.1%) it was 1.3 mm; in data set [7] (0.5%) it was 4.3 mm; in data set [8] (0.05%) it was 0 mm; in data set [8] (0.1%), 0 mm; in [8] (0.5%), 0 mm. Also, the “Zone of Inhibition” value in data set [9] (0.05%) was found to be 3 mm; in [9] (0.1%), 1 mm; in [9] (0.5%) it was 0 mm; in [10] (0.05%) it was 0 mm; in data set [10] (0.1%), 0 mm; in [10] (0.5%), 0 mm. The “Growth on Film” value in data set [11] (0.05%) stood at 0; in data set [11] (0.1%) it was 0; in data set [11] (0.5%) it was 0; in [12] (0.05%), 3; in data set [12] (0.1%), 2; in data set [12] (0.5%), 0. The compound further registered a solubility in data set [13] of 25 µg/mL (≈ 93.2 µM).

In the case of `CCN1CCN(C(=O)N[C@@H](C(=O)N[C@@H]2C(=O)N3[C@@H]2SC(C)(C)[C@@H]3C(=O)O)c2ccccc2)C(=O)C1=O` [P, Piperacillin Na, reference compound], the Zones entry in [7] (1.0%) was “slight”; in [7] (5.0%), 13.8 mm; in [7] (.04%), 0 mm; in [7] (.20%) it was 0 mm; in [8] (1.0%), 0 mm; in data set [8] (.04%), 0 mm. The Zones in data set [8] (.20%) was 0 mm; in [14] (1.0%), 14.8 mm; in [14] (5.0%) it was 21.3 mm; in [14] (.04%), 0 mm; in [14] (.20%), 0 mm; in [15] (1.0%), 0 mm. For the same compound, the Zones in [15] (5.0%) is listed as 9.8 mm; in data set [15] (.04%), 0 mm; in data set [15] (.20%) it was 0 mm; in data set [16] (1.0%) it was 5.3 mm; in data set [16] (5.0%), 13.3 mm; in [16] (.04%) it was 0 mm. The Zones in data set [16] (.20%) was found to be 0 mm; in [17] (1.0%), 13.3 mm; in data set [17] (5.0%) it was 17.3 mm; in [17] (.04%), 0 mm; in [17] (.20%) it was 0.8 mm.

Consider `CN(C)C1C(=O)C(C(N)=O)=C(O)C2(O)C(=O)C3=C(O)c4c(O)cccc4C(C)(O)C3CC12` (stereo not drawn) [T, Tetracycline HCl, reference compound], for which the Zones in [7] (1.0%) is on record as 11.3 mm; in [7] (5.0%), 19.8 mm; in data set [7] (.04%), 0 mm; in data set [7] (.20%) it was 0 mm; in data set [8] (1.0%) it was 0 mm; in data set [8] (.04%) it was 0 mm. The Zones was found to be 5.8 mm in data set [8] (.20%); 21.3 mm in data set [14] (1.0%); 26.3 mm in data set [14] (5.0%); 6.3 mm in data set [14] (.04%); 15.8 mm in [14] (.20%); 0 mm in [15] (1.0%). Moreover, the Zones in [15] (5.0%) stood at 0 mm; in data set [15] (.04%), 0 mm; in data set [15] (.20%), 0 mm; in [16] (1.0%), 0 mm; in data set [16] (5.0%) it was 0 mm; in data set [16] (.20%), 0.3 mm. The Zones came to 9.8 mm in [17] (1.0%), 19.8 mm in [17] (5.0%), 0 mm in data set [17] (.04%) and 5.8 mm in data set [17] (.20%).

Regarding Gentamycin sulfate [reference compound], the Zones result is listed as “slight” in data set [7] (.04%); 9.3 mm in [8] (5.0%); 0 mm in [8] (.04%); 6.8 mm in data set [15] (5.0%); 0 mm in data set [15] (.04%); 3.3 mm in data set [15] (.20%).
